Series [1] deals with obese mice fed high-fat diet. Description: Daily variation of body weight with oral administration to obese mice. Type of series: in vivo, mice (C57BL6J). Further details: key to Body weight: ↓: lowering or mitigating action; ↑: increasing action; →: no change. As to the method:
(§1) Six-week-old male mice (C57BL6J) were grown with high-fat diet (fat content: 60 kcal %, Research diets, Inc.) or low-fat diet (fat content: 10.5 kcal %, CLEA Japan, Inc.) for 18 weeks. Thereafter, obese mice fed high-fat diet were separated into two groups, and 0.3 mL of physiological saline was orally administered to one group through a gastric tube for mouse, and 0.3 mL of a solution of a low-molecular-weight compound dissolved in physiological saline was orally administered to the other group through the gastric tube for mouse. Oral administration was performed every day over 14 days during 30 minutes before turning lights off at 18:00 (turning lights on at 6:00, 12-hour light-dark cycle, room temperature: 22° C.). […] Thereafter, the organs were stored at −80° C. Hepatic Leprb expression was measured by means of the qRT-PCR.
4. Daily Variation of Body Weight with Oral Administration of Low-Molecular-Weight Compound
The body weight of each mouse with administration of physiological saline or administration of a low-molecular-weight compound was measured every day before each administration at 18:00.

In series [2] the test system is obese mice fed high-fat diet. Description: Insulin resistance and blood glucose level after oral administration to obese mice. It is filed as in vivo, mice (C57BL6J). On the set-up: key to Insulin resistance / Hyperglycemia: ↓: lowering or mitigating action; ↑: increasing action; →: no change. The protocol: as §1
6. Change in Insulin Resistance and Blood Glucose Level after Oral Administration of Low-Molecular-Weight Compound
Fasting blood glucose and blood insulin concentration after administration of physiological saline or administration of a low-molecular-weight compound were measured respectively by using an enzyme-electrode method with glucose oxidase and a mouse insulin ELISA kit (Morinaga Institute of Biological Science, Inc.). The insulin resistance of each mouse was represented as Homeostatic model assessment of insulin resistance (HOMA-IR) [insulin (mU/L)×blood glucose (mM)÷22.5] index (×100) (Brit J Nutr 101: 701-708, 2009).

Details of series [3]: key to Body weight / Insulin resistance / Hyperglycemia / Hypertension / Blood LDLc / Blood HDLc / Fatty liver: ↓: lowering or mitigating action; ↑: increasing action; →: no change. The following applies: Table 1, *based on clinical data; cited from earlier work.
Series [4] has as its system obese mice fed high-fat diet. Description: Hepatic lipid content after oral administration to obese mice (LipoSEARCH, BODIPY staining). Type of series: in vivo, mice (C57BL6J). On the set-up: key to Fatty liver: ↓: lowering or mitigating action; ↑: increasing action; →: no change. As to the method: as §1
8. Change in Hepatic Lipid Content after Oral Administration of Low-Molecular-Weight Compound
Hepatic Tg and Chol contents after administration of physiological saline or administration of a low-molecular-weight compound were measured by using a LipoSEARCH method (Skylight Biotech, Inc.).
To visualize and quantify the amount of fat accumulated in hepatocyte per cell and change in shape of fat, fat globule fluorescent staining with BODIPY (excitation light: 493 nm; fluorescence: 503 nm) was performed. Staining-positive area and size of staining-positive cell were measured in 10 views per mouse hepatocyte in each group. ANOVA was used for intergroup significance test in FIGS. 8-D and 8-E (****. P<0.001).

The target in a further series is α2-adrenaline receptor. The following applies: cited from earlier work.
The subject of series [5] is obese mice fed high-fat diet. Kind of series: Blood lipid concentration after oral administration to obese mice. Type of series: in vivo, mice (C57BL6J). On the set-up: key to Blood LDLc / Blood HDLc: ↓: lowering or mitigating action; ↑: increasing action; →: no change. As to the method:
as §1
10. Change in Blood Lipid Concentration after Oral Administration of Low-Molecular-Weight Compound
Fasting blood CM-Tg, VLDL-Tg, LDLc, and HDLc concentrations after administration of physiological saline or administration of a low-molecular-weight compound were measured by using the LipoSEARCH method.

The conditions of series [6]: in vivo; cited from earlier work.
[7] abbreviates: Table 1, summary of obese mouse results.

Structures are written as SMILES.

A word on the Ki: it is a dissociation constant, usually derived from enzyme kinetics or from competition with a known ligand.

In the case of `NC(N)=N/N=C/c1c(Cl)cccc1Cl` [guanabenz, 2-{[(2,6-dichlorophenyl)methylidene]amino}guanidine], in series [1] (setting [7]), the Body weight result was “↓”. Also, the anti-obesity action entry in series [1] (obese mouse results) was “exhibits anti-obesity action without reduction of appetite”. In addition, in series [2] (setting [7]), the Hyperglycemia entry is given as “↓” and the Insulin resistance result is reported as “↓”. For the same compound, in series [2] (obese mouse results), the “action on insulin resistance” value is listed as “ameliorates insulin resistance” and the hyperglycemia-mitigating action entry was “exhibits hyperglycemia-mitigating action”. The Hypertension result in series [3] was “↓*”. Also, the Fatty liver entry in series [4] (setting [7]) is “↓”. Besides, the anti-fatty liver action result in series [4] (obese mouse results) was “with anti-fatty liver action”. For the same compound, the Ki on α2-adrenaline receptor is 7 nM. In addition, in series [5] (setting [7]), the “Blood HDLc” value is on record as “→” and the “Blood LDLc” value is reported as “↓”. The “action on high LDL cholesterol” value in series [5] (obese mouse results) is “exhibits reducing action for high LDL cholesterol”. Besides, in series [6], the “absorptivity from a gastrointestinal tract” value was “approximately 75%”, the half-life in blood was 4.3 to 6.4 h and the site of metabolism result was “mostly metabolized in the liver”.

The values are drawn from US20210330616A1, “AMELIORATING AGENT FOR OBESITY-RELATED METABOLIC DISEASE” (METABOLIC AND OBESE RESEARCH SCIENCE CORPORATION, priority 2018, published 2021).
